US8299111B2, “Compounds which modulate the CB2 receptor” (Boehringer Ingelheim International GmbH, priority 2006, dated 2012)

molecular target: T1, human CB2R (Homo sapiens, UniProt P34972); assay: CB2R mediated modulation of cAMP synthesis; assay type: cell-based; conditions: found through the use of the above described assays (binding and cAMP); CHO cells expressing human CB2R, forskolin-stimulated cAMP
T1 construct: host or cells: CHO cells
How it was run: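 CHO cells expressing human CB2R were treated for 30 min at 37 °C with compound in buffer containing 1 mM IBMX, 0.25% BSA and 10 uM forskolin. cAMP was measured after lysis. EC50 is the concentration giving 50% inhibition of forskolin-stimulated cAMP, scaled to the level set by 1 uM CP55940, fitted by four-parameter logistic.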

T1 sequence (P34972 whole entry): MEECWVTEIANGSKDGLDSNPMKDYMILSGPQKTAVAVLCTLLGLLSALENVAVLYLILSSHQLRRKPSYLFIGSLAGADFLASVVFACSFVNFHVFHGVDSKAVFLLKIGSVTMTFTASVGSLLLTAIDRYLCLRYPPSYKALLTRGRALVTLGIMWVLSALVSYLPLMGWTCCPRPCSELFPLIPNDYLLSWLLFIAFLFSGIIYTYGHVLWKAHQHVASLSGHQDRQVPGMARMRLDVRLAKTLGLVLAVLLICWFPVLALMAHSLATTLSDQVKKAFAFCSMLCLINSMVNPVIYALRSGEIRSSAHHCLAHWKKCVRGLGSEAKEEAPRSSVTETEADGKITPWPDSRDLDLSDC

| SMILES | agonistic activity |
| --- | --- |
| CCC(C)c1cc(NC(=O)C(C)(C)S(=O)(=O)c2ccc(Cl)cc2)on1 (centres unmarked) [N-(3-sec-Butyl-isoxazol-5-yl)-2-(4-chloro-benzenesulfonyl)-2-methyl-propionamide] | agonistic activity |
| CC(C)(C)c1cc(NC(=O)C(C)(C)S(=O)(=O)c2ccc(F)cc2F)on1 [N-(3-tert-Butyl-isoxazol-5-yl)-2-(2,4-difluoro-benzenesulfonyl)-2-methyl-propionamide] | agonistic activity |
| Cc1ccc(S(=O)(=O)C(C)(C)C(=O)Nc2cc(C(C)(C)C)no2)cc1F [N-(3-tert-Butyl-isoxazol-5-yl)-2-(3-fluoro-4-methyl-benzenesulfonyl)-2-methyl-propionamide] | agonistic activity |
| CC(C)(C)c1cc(NC(=O)C(C)(C)S(=O)(=O)c2ccc(Cl)cc2F)on1 [N-(3-tert-Butyl-isoxazol-5-yl)-2-(4-chloro-2-fluoro-benzenesulfonyl)-2-methyl-propionamide] | agonistic activity |
| CC(C)(C)c1cc(NC(=O)C(C)(C)S(=O)(=O)c2ccc(F)cc2)on1 [N-(3-tert-Butyl-isoxazol-5-yl)-2-(4-fluoro-benzenesulfonyl)-2-methyl-propionamide] | agonistic activity |
| COc1ccc(S(=O)(=O)C(C)(C)C(=O)Nc2cc(C(C)(C)C)no2)cc1 [N-(3-tert-Butyl-isoxazol-5-yl)-2-(4-methoxy-benzenesulfonyl)-2-methyl-propionamide] | agonistic activity |
| CC(C)(C)c1cc(NC(=O)C(C)(C)S(=O)(=O)c2ccc(C(F)(F)F)cc2)on1 [N-(3-tert-Butyl-isoxazol-5-yl)-2-methyl-2-(4-trifluoromethyl-benzenesulfonyl)-propionamide] | agonistic activity |
| CC(C)(C)c1cc(NC(=O)C(C)(C)S(=O)(=O)c2ccc(C(F)(F)F)nc2)on1 [N-(3-tert-butylisoxazol-5-yl)-2-methyl-2-{[6-(trifluoromethyl)pyridin-3-yl]sulfonyl}propanamide] | agonistic activity |
| COc1ccc(S(=O)(=O)C(C)(C)C(=O)Nc2nc(C3CCCCC3)cs2)cc1 [N-(4-cyclohexyl-1,3-thiazol-2-yl)-2-[(4-methoxyphenyl)sulfonyl]-2-methylpropanamide] | agonistic activity |
| CC(C)(C(=O)Nc1nc(C2CCCCC2)cs1)S(=O)(=O)c1ccc(S(C)(=O)=O)cc1 [N-(4-cyclohexyl-1,3-thiazol-2-yl)-2-methyl-2-{[4-(methylsulfonyl)phenyl]sulfonyl}propanamide] | agonistic activity |
| CC(C)(C(=O)Nc1nc(C2CC2)cs1)S(=O)(=O)c1ccc(S(C)(=O)=O)cc1 [N-(4-cyclopropyl-1,3-thiazol-2-yl)-2-methyl-2-{[4-(methylsulfonyl)phenyl]sulfonyl}propanamide] | agonistic activity |
| CCc1ccnc(NC(=O)C(C)(C)S(=O)(=O)c2ccc(S(C)(=O)=O)cc2)c1 [N-(4-ethylpyridin-2-yl)-2-methyl-2-{[4-(methylsulfonyl)phenyl]sulfonyl}propanamide] | agonistic activity |
| CCc1ccnc(NC(=O)C(C)(C)S(=O)(=O)c2ccc(C(F)(F)F)nc2)c1 [N-(4-ethylpyridin-2-yl)-2-methyl-2-{[6-(trifluoromethyl)pyridin-3-yl]sulfonyl}propanamide] | agonistic activity |
| CC(C)(C)c1csc(NC(=O)C(C)(C)S(=O)(=O)c2ccc(Cl)cc2Cl)n1 [N-(4-tert-Butyl-thiazol-2-yl)-2-(2,4-dichloro-benzenesulfonyl)-2-methyl-propionamide] | agonistic activity |
| CC(C)(C)c1csc(NC(=O)C(C)(C)S(=O)(=O)c2ccc(Cl)cc2F)n1 [N-(4-tert-Butyl-thiazol-2-yl)-2-(4-chloro-2-fluoro-benzenesulfonyl)-2-methyl-propionamide] | agonistic activity |
| CC(C)(C)c1csc(NC(=O)C(C)(C)S(=O)(=O)c2ccc(F)cc2)n1 [N-(4-tert-Butyl-thiazol-2-yl)-2-(4-fluoro-benzenesulfonyl)-2-methyl-propionamide] | agonistic activity |
| CC(C)(C)c1csc(NC(=O)C(C)(C)S(=O)(=O)c2ccc(Cl)nc2)n1 [N-(4-tert-Butyl-thiazol-2-yl)-2-(6-chloro-pyridine-3-sulfonyl)-2-methyl-propionamide] | agonistic activity |
| CC(C)(C)c1csc(NC(=O)C(C)(C)S(=O)(=O)c2cccc(C(F)(F)F)c2)n1 [N-(4-tert-Butyl-thiazol-2-yl)-2-methyl-2-(3-trifluoromethyl-benzenesulfonyl)-propionamide] | agonistic activity |
| CC(C)(C)c1csc(NC(=O)C(C)(C)S(=O)(=O)c2ccc(C(F)(F)F)cc2)n1 [N-(4-tert-Butyl-thiazol-2-yl)-2-methyl-2-(4-trifluoromethyl-benzenesulfonyl)-propionamide] | agonistic activity |
| CC(C)(C)c1csc(NC(=O)C(C)(C)S(=O)(=O)c2ccc(C(F)(F)F)nc2)n1 [N-(4-tert-Butyl-thiazol-2-yl)-2-methyl-2-(6-trifluoromethyl-pyridine-3-sulfonyl)-propionamide] | agonistic activity |

The remaining lines, values ahead:

| agonistic activity | SMILES |
| --- | --- |
| agonistic activity | CC(C)(C)c1cc(NC(=O)C(C)(C)S(=O)(=O)c2ccc(Cl)cc2)ccn1 [N-(2-tert-butylpyridin-4-yl)-2-[(4-chlorophenyl)sulfonyl]-2-methylpropanamide] |
| agonistic activity | CC(C)c1cc(NC(=O)C(C)(C)S(=O)(=O)c2ccc(C(F)(F)F)nc2)n(C)n1 [N-(3-isopropyl-1-methyl-1H-pyrazol-5-yl)-2-methyl-2-{[6-(trifluoromethyl)pyridin-3-yl]sulfonyl}propanamide] |
| agonistic activity | CC(C)(C)c1cc(NC(=O)C(C)(C)S(=O)(=O)c2cc(F)ccc2F)on1 [N-(3-tert-Butyl-isoxazol-5-yl)-2-(2,5-difluoro-benzenesulfonyl)-2-methyl-propionamide] |
| agonistic activity | CC(C)(C)c1cc(NC(=O)C(C)(C)S(=O)(=O)c2ccc(Cl)cc2)on1 [N-(3-tert-Butyl-isoxazol-5-yl)-2-(4-chloro-benzenesulfonyl)-2-methyl-propionamide] |
| agonistic activity | Cc1ccc(S(=O)(=O)C(C)(C)C(=O)Nc2cc(C(C)(C)C)no2)cc1 [N-(3-tert-Butyl-isoxazol-5-yl)-2-methyl-2-(toluene-4-sulfonyl)-propionamide] |
| agonistic activity | CC(C)(C)c1cccc(NC(=O)C(C)(C)S(=O)(=O)c2ccc(Cl)cc2)c1 [N-(3-tert-Butyl-phenyl)-2-(4-chloro-benzenesulfonyl)-2-methyl-propionamide] |
| agonistic activity | Cn1nc(C(C)(C)C)cc1NC(=O)C(C)(C)S(=O)(=O)c1ccc(S(C)(=O)=O)cc1 [N-(3-tert-butyl-1-methyl-1H-pyrazol-5-yl)-2-methyl-2-{[4-(methylsulfonyl)phenyl]sulfonyl}propanamide] |
| agonistic activity | CC(C)(C)c1cccc(NC(=O)C(C)(C)S(=O)(=O)c2ccc(Cl)cc2F)c1 [N-(3-tert-butylphenyl)-2-[(4-chloro-2-fluorophenyl)sulfonyl]-2-methylpropanamide] |
| agonistic activity | CC(C)(C)c1cccc(NC(=O)C(C)(C)S(=O)(=O)c2ccc(C(F)(F)F)nc2)c1 [N-(3-tert-butylphenyl)-2-methyl-2-{[6-(trifluoromethyl)pyridin-3-yl]sulfonyl}propanamide] |
| agonistic activity | Cc1sc(NC(=O)C(C)(C)S(=O)(=O)c2ccc(Cl)cc2)nc1C(C)(C)C [N-(4-tert-Butyl-5-methyl-thiazol-2-yl)-2-(4-chloro-benzenesulfonyl)-2-methyl-propionamide] |
| agonistic activity | CC(C)(C)c1coc(NC(=O)C(C)(C)S(=O)(=O)c2ccc(Cl)cc2)n1 [N-(4-tert-Butyl-oxazol-2-yl)-2-(4-chloro-benzenesulfonyl)-2-methyl-propionamide] |
| agonistic activity | CC(C)(C)c1ccc(NC(=O)C(C)(C)S(=O)(=O)c2ccc(Cl)cc2)cc1 [N-(4-tert-Butyl-phenyl)-2-(4-chloro-benzenesulfonyl)-2-methyl-propionamide] |
| agonistic activity | CC(C)(C)c1csc(NC(=O)C(C)(C)S(=O)(=O)c2cc(F)ccc2F)n1 [N-(4-tert-Butyl-thiazol-2-yl)-2-(2,5-difluoro-benzenesulfonyl)-2-methyl-propionamide] |
| agonistic activity | CC(C)(C)c1csc(NC(=O)C(C)(C)S(=O)(=O)c2ccc(Cl)c(Cl)c2)n1 [N-(4-tert-Butyl-thiazol-2-yl)-2-(3,4-dichloro-benzenesulfonyl)-2-methyl-propionamide] |
| agonistic activity | CC(C)(C)c1csc(NC(=O)C(C)(C)S(=O)(=O)c2ccc(Cl)cc2)n1 [N-(4-tert-Butyl-thiazol-2-yl)-2-(4-chloro-benzenesulfonyl)-2-methyl-propionamide] |
| agonistic activity | CC(C)(C)c1csc(NC(=O)C(C)(C)S(=O)(=O)c2ccc(C#N)cc2F)n1 [N-(4-tert-Butyl-thiazol-2-yl)-2-(4-cyano-2-fluoro-benzenesulfonyl)-2-methyl-propionamide] |
| agonistic activity | COc1ccc(S(=O)(=O)C(C)(C)C(=O)Nc2nc(C(C)(C)C)cs2)cn1 [N-(4-tert-Butyl-thiazol-2-yl)-2-(6-methoxy-pyridine-3-sulfonyl)-2-methyl-propionamide] |
| agonistic activity | CC(C)(C)c1csc(NC(=O)C(C)(C)S(=O)(=O)c2ccc3ccccc3c2)n1 [N-(4-tert-Butyl-thiazol-2-yl)-2-methyl-2-(naphthalene-2-sulfonyl)-propionamide] |
